Our source for the Activity values is ChEMBL document CHEMBL2034966, “Bidirectional fluorescence properties of pyrene-based peroxisome proliferator-activated receptor (PPAR) α/δ dual agonist” (Bioorg Med Chem, 2012).

SMILES strings stand for the structures. Where a chain is given by its changes, count along the chain named. Calls of active or inactive are those of the source. No cut-off for these calls is given here.

Assay [1] concerns the target T1, Peroxisome proliferator-activated receptor alpha (Homo sapiens) (UniProt Q07869).
T1 sequence (whole entry): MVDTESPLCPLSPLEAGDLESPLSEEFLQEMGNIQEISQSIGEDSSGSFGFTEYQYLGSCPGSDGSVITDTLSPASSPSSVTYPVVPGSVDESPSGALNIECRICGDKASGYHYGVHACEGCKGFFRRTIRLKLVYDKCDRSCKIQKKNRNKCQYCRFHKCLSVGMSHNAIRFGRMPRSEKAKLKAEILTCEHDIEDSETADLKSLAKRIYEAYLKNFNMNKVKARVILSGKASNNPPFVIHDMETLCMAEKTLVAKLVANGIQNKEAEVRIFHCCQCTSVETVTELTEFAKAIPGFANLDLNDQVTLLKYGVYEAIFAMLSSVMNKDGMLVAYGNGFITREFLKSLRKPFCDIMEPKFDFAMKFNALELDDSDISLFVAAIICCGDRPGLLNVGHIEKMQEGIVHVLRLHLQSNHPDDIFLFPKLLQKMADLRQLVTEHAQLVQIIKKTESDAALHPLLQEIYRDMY
The assay is described as follows: Binding affinity to N-terminal His-tagged human PPARalpha ligand binding domain assessed as increase in fluorescence at 500 nM by fluorometry.

The target of assay [2] is T2, Peroxisome proliferator-activated receptor delta (Homo sapiens) (UniProt Q03181).
T2 sequence (whole entry): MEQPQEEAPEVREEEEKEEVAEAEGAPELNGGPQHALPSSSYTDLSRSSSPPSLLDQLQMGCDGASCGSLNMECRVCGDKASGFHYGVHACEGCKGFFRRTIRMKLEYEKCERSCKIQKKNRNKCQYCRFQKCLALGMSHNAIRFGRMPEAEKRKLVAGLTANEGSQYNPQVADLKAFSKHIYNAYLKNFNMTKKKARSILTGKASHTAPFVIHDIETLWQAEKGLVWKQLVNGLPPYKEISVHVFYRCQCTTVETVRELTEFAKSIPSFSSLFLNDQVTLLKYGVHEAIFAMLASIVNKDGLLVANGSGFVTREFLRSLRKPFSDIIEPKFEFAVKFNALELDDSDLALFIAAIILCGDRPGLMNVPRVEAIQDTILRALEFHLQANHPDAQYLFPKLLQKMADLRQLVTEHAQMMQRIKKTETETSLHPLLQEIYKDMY
Briefly: Binding affinity to N-terminal His-tagged human PPARdelta ligand binding domain assessed as decrease in fluorescence at 500 nM by fluorometry.

The species named for assay [3] is Homo sapiens. Briefly: Binding affinity to N-terminal His-tagged human PPARdelta W264L mutant ligand binding domain assessed as increase in fluorescence at 500 nM by fluorometry.
Assay [4] is filed under the species Homo sapiens. Briefly: Binding affinity to N-terminal His-tagged human PPARdelta W264A mutant ligand binding domain assessed as increase in fluorescence at 500 nM by fluorometry.
For assay [5], the species on record is Homo sapiens. The assay is described as follows: Binding affinity to N-terminal His-tagged human PPARdelta W256A mutant ligand binding domain assessed as increase in fluorescence at 500 nM by fluorometry.
The species named for assay [6] is Homo sapiens. The assay is described as follows: Binding affinity to N-terminal His-tagged human PPARdelta W225A mutant ligand binding domain assessed as decrease in fluorescence at 500 nM by fluorometry.
Assay [7] concerns T3, Peroxisome proliferator-activated receptor alpha (Homo sapiens), Q07869 [L258W].
T3 sequence (whole entry): T1 sequence (whole entry) with L258W
Briefly: Binding affinity to N-terminal His-tagged human PPARalpha L258W mutant ligand binding domain assessed as increase in fluorescence at 500 nM by fluorometry.

For the compound `CC[C@@H](Cc1ccc(OC)c(CNC(=O)c2ccc3ccc4cccc5ccc2c3c45)c1)C(=O)O`, the result (in assay [1]; in assay [2]; in the assay filed under Homo sapiens [3]; in the assay filed under Homo sapiens [4]; in the assay filed under Homo sapiens [6]) was Active. Also, the result (in the assay filed under Homo sapiens [5]; in assay [7]) was inactive.
